PubChem BioAssay (NCI)
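Following 48 hours of exposure in 96-well plates, responses at five concentrations were used to interpolate endpoints linearly. TGI is the concentration that stops growth completely.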

What was measured:
Test in all cases: DTP human tumour cell line panel, 48 h
SF-539 CNS = system: SF-539 CNS
CAKI-1 renal = system: CAKI-1 renal
BT-549 breast = system: BT-549 breast
SNB-19 CNS = system: SNB-19 CNS
SW-620 colon = system: SW-620 colon
UACC-62 melanoma = system: UACC-62 melanoma
LOX IMVI melanoma = system: LOX IMVI melanoma
SR leukemia = system: SR leukemia
EKVX NSCLC = system: EKVX NSCLC
SK-MEL-2 melanoma = system: SK-MEL-2 melanoma
SNB-75 CNS = system: SNB-75 CNS
SK-OV-3 ovarian = system: SK-OV-3 ovarian
OVCAR-8 ovarian = system: OVCAR-8 ovarian
MDA-MB-435 = system: MDA-MB-435
HCC-2998 colon = system: HCC-2998 colon
COLO 205 colon = system: COLO 205 colon
SF-268 CNS = system: SF-268 CNS
HL-60(TB) leukemia = system: HL-60(TB) leukemia
NCI-H460 lung = system: NCI-H460 lung
MCF7 breast = system: MCF7 breast
A549 NSCLC = system: A549 NSCLC
KM12 colon = system: KM12 colon
HCT-116 colon = system: HCT-116 colon
CCRF-CEM leukemia = system: CCRF-CEM leukemia
SN12C renal = system: SN12C renal
OVCAR-5 ovarian = system: OVCAR-5 ovarian
NCI-H522 lung = system: NCI-H522 lung
DU-145 prostate = system: DU-145 prostate
ACHN renal = system: ACHN renal
K-562 leukemia = system: K-562 leukemia
RXF 393 renal = system: RXF 393 renal
PC-3 prostate = system: PC-3 prostate
MOLT-4 leukemia = system: MOLT-4 leukemia
MALME-3M melanoma = system: MALME-3M melanoma
SK-MEL-5 melanoma = system: SK-MEL-5 melanoma
UACC-257 melanoma = system: UACC-257 melanoma
HOP-92 NSCLC = system: HOP-92 NSCLC
MDA-MB-231 breast = system: MDA-MB-231 breast
NCI-H226 lung = system: NCI-H226 lung
TK-10 renal = system: TK-10 renal
RPMI-8226 leukemia = system: RPMI-8226 leukemia
SK-MEL-28 melanoma = system: SK-MEL-28 melanoma
M14 melanoma = system: M14 melanoma
MDA-N = system: MDA-N
NCI-H23 lung = system: NCI-H23 lung
SF-295 CNS = system: SF-295 CNS
U251 CNS = system: U251 CNS
NCI/ADR-RES ovarian = system: NCI/ADR-RES ovarian
IGROV1 ovarian = system: IGROV1 ovarian
OVCAR-3 ovarian = system: OVCAR-3 ovarian
OVCAR-4 ovarian = system: OVCAR-4 ovarian
A498 renal = system: A498 renal
HOP-62 NSCLC = system: HOP-62 NSCLC
HS 578T breast = system: HS 578T breast
UO-31 renal = system: UO-31 renal
786-0 renal = system: 786-0 renal
HT29 colon = system: HT29 colon
HCT-15 colon = system: HCT-15 colon
T-47D breast = system: T-47D breast

In the case of CC(=O)OC1COC(n2c(-c3ccc(Cl)cc3)cc(-c3ccccc3)c(C#N)c2=S)C(OC(C)=O)C1OC(C)=O (stereo unspecified), the TGI (SF-539 CNS) is reported as 15.2 µM, the TGI (CAKI-1 renal) is reported as 50 µM and the TGI (BT-549 breast) is reported as > 81.8 µM. The TGI (SNB-19 CNS) was > 79.6 µM, the TGI (SW-620 colon) was > 100 µM and the TGI (UACC-62 melanoma) was > 31.6 µM. The TGI (LOX IMVI melanoma) was 15.5 µM, the TGI (SR leukemia) was > 82.8 µM and the TGI (EKVX NSCLC) was > 100 µM. The TGI (SK-MEL-2 melanoma) was 29.4 µM, the TGI (SNB-75 CNS) was > 100 µM and the TGI (SK-OV-3 ovarian) was > 78.7 µM. For the same molecule, the TGI (OVCAR-8 ovarian) was 21.6 µM, the TGI (MDA-MB-435) was > 62.4 µM and the TGI (HCC-2998 colon) was > 90.3 µM. For the same molecule, the TGI (COLO 205 colon) was > 64.2 µM, the TGI (SF-268 CNS) was > 39.3 µM and the TGI (HL-60(TB) leukemia) was > 89.9 µM. The TGI (NCI-H460 lung) was > 66.8 µM, the TGI (MCF7 breast) was > 100 µM and the TGI (A549 NSCLC) was 30.6 µM. The TGI (KM12 colon) was > 100 µM, the TGI (HCT-116 colon) was > 51.7 µM and the TGI (CCRF-CEM leukemia) was > 86.1 µM. The TGI (SN12C renal) was 31.8 µM, the TGI (OVCAR-5 ovarian) was > 100 µM and the TGI (NCI-H522 lung) was > 100 µM. The TGI (DU-145 prostate) was 41.6 µM, the TGI (ACHN renal) was > 31.6 µM and the TGI (K-562 leukemia) was > 59.8 µM. For the same molecule, the TGI (RXF 393 renal) was 26.9 µM, the TGI (PC-3 prostate) was 46.3 µM and the TGI (MOLT-4 leukemia) was > 100 µM. For the same molecule, the TGI (MALME-3M melanoma) was > 100 µM, the TGI (SK-MEL-5 melanoma) was > 42.2 µM and the TGI (UACC-257 melanoma) was > 100 µM. The TGI (HOP-92 NSCLC) was 28.8 µM, the TGI (MDA-MB-231 breast) was 9.38 µM and the TGI (NCI-H226 lung) was 32.3 µM. The TGI (TK-10 renal) was > 73.4 µM, the TGI (RPMI-8226 leukemia) was > 100 µM and the TGI (SK-MEL-28 melanoma) was > 45.8 µM. For the same molecule, the TGI (M14 melanoma) was > 31.6 µM, the TGI (MDA-N) was > 100 µM and the TGI (NCI-H23 lung) was 28.3 µM. The TGI (SF-295 CNS) was 31.7 µM, the TGI (U251 CNS) was 15.5 µM and the TGI (NCI/ADR-RES ovarian) was 33.8 µM. For the same molecule, the TGI (IGROV1 ovarian) was > 31.6 µM, the TGI (OVCAR-3 ovarian) was 18.2 µM and the TGI (OVCAR-4 ovarian) was 11.1 µM. The TGI (A498 renal) was 34.1 µM, the TGI (HOP-62 NSCLC) was 28.4 µM and the TGI (HS 578T breast) was 24.6 µM. The TGI (UO-31 renal) was 38.4 µM, the TGI (786-0 renal) was 26.8 µM and the TGI (HT29 colon) was > 64.6 µM. The TGI (HCT-15 colon) was > 100 µM and the TGI (T-47D breast) was 54 µM.

Molecule COc1cc(C(c2cc3c(cc2O)OCO3)N2CCCCC2)cc(OC)c1OC (stereo unspecified) has a TGI (SF-539 CNS) of 33.9 µM, a TGI (CAKI-1 renal) of 27.6 µM and a TGI (BT-549 breast) of 24.4 µM. For the same molecule, the TGI (SNB-19 CNS) was 46.9 µM, the TGI (SW-620 colon) was 12 µM and the TGI (UACC-62 melanoma) was 30.6 µM. The TGI (LOX IMVI melanoma) was 28.4 µM, the TGI (SR leukemia) was > 23.5 µM and the TGI (EKVX NSCLC) was 39.5 µM. The TGI (SK-MEL-2 melanoma) was 32.9 µM, the TGI (SNB-75 CNS) was 33.5 µM and the TGI (SK-OV-3 ovarian) was 56.2 µM. The TGI (OVCAR-8 ovarian) was 28.1 µM, the TGI (MDA-MB-435) was 16.8 µM and the TGI (HCC-2998 colon) was 39 µM. For the same molecule, the TGI (COLO 205 colon) was 26.6 µM, the TGI (SF-268 CNS) was 31.5 µM and the TGI (HL-60(TB) leukemia) was 4.16 µM. It also gave a TGI (NCI-H460 lung) of 45.8 µM, a TGI (MCF7 breast) of 29.3 µM and a TGI (A549 NSCLC) of 45.8 µM. It also gave a TGI (KM12 colon) of 34 µM, a TGI (HCT-116 colon) of 30.4 µM and a TGI (CCRF-CEM leukemia) of 19.2 µM. For the same molecule, the TGI (SN12C renal) was 25.1 µM, the TGI (OVCAR-5 ovarian) was 32.2 µM and the TGI (NCI-H522 lung) was 26.7 µM. For the same molecule, the TGI (DU-145 prostate) was 35.6 µM, the TGI (ACHN renal) was 31.1 µM and the TGI (K-562 leukemia) was > 21.3 µM. The TGI (RXF 393 renal) was 27.6 µM, the TGI (PC-3 prostate) was 30.6 µM and the TGI (MALME-3M melanoma) was 26.1 µM. It also gave a TGI (SK-MEL-5 melanoma) of 34.6 µM, a TGI (UACC-257 melanoma) of 25.7 µM and a TGI (HOP-92 NSCLC) of 23.1 µM. The TGI (MDA-MB-231 breast) was 29.3 µM, the TGI (NCI-H226 lung) was 41.6 µM and the TGI (TK-10 renal) was 31.2 µM. The TGI (RPMI-8226 leukemia) was > 26.9 µM, the TGI (SK-MEL-28 melanoma) was 32 µM and the TGI (M14 melanoma) was 18.5 µM. The TGI (MDA-N) was 19.8 µM, the TGI (NCI-H23 lung) was 31.8 µM and the TGI (SF-295 CNS) was > 100 µM. It also gave a TGI (U251 CNS) of 30.2 µM, a TGI (NCI/ADR-RES ovarian) of 39.2 µM and a TGI (IGROV1 ovarian) of 32.4 µM. For the same molecule, the TGI (OVCAR-3 ovarian) was 26.9 µM, the TGI (OVCAR-4 ovarian) was 25.2 µM and the TGI (A498 renal) was 35.5 µM. The TGI (HOP-62 NSCLC) was > 70.9 µM, the TGI (HS 578T breast) was 43.5 µM and the TGI (UO-31 renal) was 28.3 µM. For the same molecule, the TGI (786-0 renal) was 12.9 µM, the TGI (HT29 colon) was 33.3 µM and the TGI (HCT-15 colon) was 30.8 µM. For the same molecule, the TGI (T-47D breast) was 47.8 µM.

For c1ccc2c(c1)-c1ccccc1C2N1CC2CCC(CC2)C1, the TGI (SF-539 CNS) was 48.9 µM, the TGI (CAKI-1 renal) was > 100 µM and the TGI (BT-549 breast) was 47.9 µM. The TGI (SNB-19 CNS) was 92.4 µM, the TGI (SW-620 colon) was 49.1 µM and the TGI (UACC-62 melanoma) was 44.5 µM. It also gave a TGI (LOX IMVI melanoma) of 40.5 µM, a TGI (SR leukemia) of 50.6 µM and a TGI (EKVX NSCLC) of 51 µM. The TGI (SK-MEL-2 melanoma) was 30.7 µM, the TGI (SNB-75 CNS) was 61.4 µM and the TGI (SK-OV-3 ovarian) was > 100 µM. For the same molecule, the TGI (OVCAR-8 ovarian) was > 100 µM, the TGI (MDA-MB-435) was 73.4 µM and the TGI (HCC-2998 colon) was 31.4 µM. The TGI (COLO 205 colon) was 38.1 µM, the TGI (SF-268 CNS) was 37.8 µM and the TGI (HL-60(TB) leukemia) was 11.2 µM. For the same molecule, the TGI (NCI-H460 lung) was 52.2 µM, the TGI (MCF7 breast) was 32.7 µM and the TGI (A549 NSCLC) was > 100 µM. For the same molecule, the TGI (KM12 colon) was 39.9 µM, the TGI (HCT-116 colon) was 46.9 µM and the TGI (CCRF-CEM leukemia) was 35.8 µM. It also gave a TGI (SN12C renal) of 55.6 µM, a TGI (OVCAR-5 ovarian) of 37.2 µM and a TGI (NCI-H522 lung) of 28.5 µM. It also gave a TGI (DU-145 prostate) of 92 µM, a TGI (ACHN renal) of 53.4 µM and a TGI (K-562 leukemia) of 36.6 µM. It also gave a TGI (RXF 393 renal) of 33.7 µM, a TGI (PC-3 prostate) of 72.1 µM and a TGI (MOLT-4 leukemia) of 28.2 µM. For the same molecule, the TGI (MALME-3M melanoma) was 27.6 µM, the TGI (SK-MEL-5 melanoma) was 32.6 µM and the TGI (UACC-257 melanoma) was 47.1 µM. For the same molecule, the TGI (HOP-92 NSCLC) was 48.5 µM, the TGI (MDA-MB-231 breast) was 37.4 µM and the TGI (NCI-H226 lung) was 41.5 µM. For the same molecule, the TGI (TK-10 renal) was > 100 µM, the TGI (RPMI-8226 leukemia) was 46 µM and the TGI (SK-MEL-28 melanoma) was 96.1 µM. The TGI (M14 melanoma) was 75.4 µM, the TGI (MDA-N) was > 100 µM and the TGI (NCI-H23 lung) was 47.5 µM. The TGI (SF-295 CNS) was 38.1 µM, the TGI (U251 CNS) was 30.9 µM and the TGI (NCI/ADR-RES ovarian) was 39.5 µM. The TGI (IGROV1 ovarian) was 69.8 µM, the TGI (OVCAR-3 ovarian) was 40.5 µM and the TGI (OVCAR-4 ovarian) was > 100 µM. For the same molecule, the TGI (A498 renal) was 40.1 µM, the TGI (HOP-62 NSCLC) was 62 µM and the TGI (HS 578T breast) was 33.2 µM. The TGI (UO-31 renal) was 94.6 µM, the TGI (786-0 renal) was > 100 µM and the TGI (HT29 colon) was 37.6 µM. It also gave a TGI (HCT-15 colon) of 40 µM and a TGI (T-47D breast) of 43.3 µM.
